Key:
[1] = test system: MDA-MB-231 cells; experiment: Clonogenic growth assay; format: cell-based, human; conditions: 10 μM for 48 h, nine days of growth
Description: Figure 9 Clonogenic growth assay of DCAF11‐recruiting PROTACs. MDA‐MB‐231 cells were treated with 10 μM of the respective compound or vehicle (DMSO) for 48 hours. (A) Representative images of crystal violet stained colonies after nine days of growth. (B) Quantification of counted colonies, presented as mean ± standard deviation of three biological replicates, each performed in triplicates. Significance of quantification compared to vehicle: ns=p≥0.05; **=p≤0.01 and ***=p≤0.001. […]
Subsequently, cells were harvested and
plated in 6-well plates at a density of 750 cells per well in triplicates. The cell culture medium was
changed after five days. Nine days after plating, the colonies were carefully washed with 500 µL DPBS
and stained with 500 µL crystal violet solution (0.5% in methanol). After 30 minutes of incubation at
room temperature, the wells were gently rinsed with deionized water. After counting the formed
colonies, GraphPad Prism (GraphPad Software) was used for bar graph creation. Significance testing
was performed with a one-way analysis of variance (ANOVA). Dunnett’s post-hoc test was employed
to obtain significance levels of each mean compared to a reference mean value.

[2] = target: HDAC2 (Homo sapiens, UniProt Q92769); experiment: Immunoblot HDAC2 degradation in MM.1S cell lysates; format: cell-based; design: endogenous in cells; host or cells: MM.1S; conditions: MM1.S, MM.1S cells, 24 h, read-out: maximal degradation (Dmax) HDAC2
Sequence of HDAC2 (Q92769 whole entry, canonical isoform): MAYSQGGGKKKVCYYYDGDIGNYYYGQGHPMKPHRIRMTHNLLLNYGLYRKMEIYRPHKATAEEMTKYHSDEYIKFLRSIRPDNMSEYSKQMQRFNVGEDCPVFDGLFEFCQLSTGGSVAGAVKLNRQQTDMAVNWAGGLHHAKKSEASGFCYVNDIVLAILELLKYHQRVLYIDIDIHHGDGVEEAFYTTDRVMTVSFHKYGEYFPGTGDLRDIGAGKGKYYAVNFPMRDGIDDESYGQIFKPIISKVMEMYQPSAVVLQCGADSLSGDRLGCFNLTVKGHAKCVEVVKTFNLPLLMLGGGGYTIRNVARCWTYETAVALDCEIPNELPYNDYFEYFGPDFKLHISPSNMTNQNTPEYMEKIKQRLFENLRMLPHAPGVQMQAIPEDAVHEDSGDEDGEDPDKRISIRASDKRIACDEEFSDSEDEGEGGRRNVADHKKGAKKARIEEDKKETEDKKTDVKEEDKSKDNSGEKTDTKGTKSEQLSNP
Description: (§1) Figure 6 Examination of HDAC isoform degradation. MM.1S cells were treated with the indicated compounds (10 μM) or vehicle (DMSO) for 24 h. HDAC1, 2, 4, and 6 levels were analyzed by immunoblotting. (A) Representative images from a total of n=3 biological replicates. […]
(§2) The cell lysis was performed as descripted in 3.2. Simple Western Immunoassay. Samples were denatured by Laemmli 2× Concentrate (Catalog# S3401-10VL, Sigma-Aldrich) for 5 min at 95 °C, and Precision Plus Protein Unstained Standard was used as molecular weight marker (Catalog# 1610363, Bio-Rad, Hercules, CA, USA). SDS-PAGE was performed with 10 or 12% Mini-PROTEAN TGX Stain-Free Gel (Catalog# 458035, Bio -Rad) at 200 V for 50 min (Catalog# 458035, Bio -Rad).
(§3) Afterwards, proteins were transferred with the Trans -Blot Turbo Transfer System (Catalog# 1704150, Bio-Rad) to Immobilon-FL PVDF membranes (Catalog# IPFL00005, Mill ipore Merck, Burlington, MA, USA) at 1.0 A for 30 min and treated with 5% milk-powder solution for 1 h at room temperature under slight agitation. […] The ChemiDoc XRS+ System (Catalog# 1708265 , Bio-Rad) was used for detection and Image Lab Software 6.1 (Bio-Rad) for quantification. […]

[3] = target: HDAC4 (Homo sapiens, UniProt P56524); experiment: Immunoblot HDAC4 degradation in MM.1S cell lysates; format: cell-based; design: endogenous in cells; host or cells: MM.1S; conditions: MM1.S, MM.1S cells, 24 h, read-out: maximal degradation (Dmax) HDAC4
Sequence of HDAC4 (P56524 whole entry): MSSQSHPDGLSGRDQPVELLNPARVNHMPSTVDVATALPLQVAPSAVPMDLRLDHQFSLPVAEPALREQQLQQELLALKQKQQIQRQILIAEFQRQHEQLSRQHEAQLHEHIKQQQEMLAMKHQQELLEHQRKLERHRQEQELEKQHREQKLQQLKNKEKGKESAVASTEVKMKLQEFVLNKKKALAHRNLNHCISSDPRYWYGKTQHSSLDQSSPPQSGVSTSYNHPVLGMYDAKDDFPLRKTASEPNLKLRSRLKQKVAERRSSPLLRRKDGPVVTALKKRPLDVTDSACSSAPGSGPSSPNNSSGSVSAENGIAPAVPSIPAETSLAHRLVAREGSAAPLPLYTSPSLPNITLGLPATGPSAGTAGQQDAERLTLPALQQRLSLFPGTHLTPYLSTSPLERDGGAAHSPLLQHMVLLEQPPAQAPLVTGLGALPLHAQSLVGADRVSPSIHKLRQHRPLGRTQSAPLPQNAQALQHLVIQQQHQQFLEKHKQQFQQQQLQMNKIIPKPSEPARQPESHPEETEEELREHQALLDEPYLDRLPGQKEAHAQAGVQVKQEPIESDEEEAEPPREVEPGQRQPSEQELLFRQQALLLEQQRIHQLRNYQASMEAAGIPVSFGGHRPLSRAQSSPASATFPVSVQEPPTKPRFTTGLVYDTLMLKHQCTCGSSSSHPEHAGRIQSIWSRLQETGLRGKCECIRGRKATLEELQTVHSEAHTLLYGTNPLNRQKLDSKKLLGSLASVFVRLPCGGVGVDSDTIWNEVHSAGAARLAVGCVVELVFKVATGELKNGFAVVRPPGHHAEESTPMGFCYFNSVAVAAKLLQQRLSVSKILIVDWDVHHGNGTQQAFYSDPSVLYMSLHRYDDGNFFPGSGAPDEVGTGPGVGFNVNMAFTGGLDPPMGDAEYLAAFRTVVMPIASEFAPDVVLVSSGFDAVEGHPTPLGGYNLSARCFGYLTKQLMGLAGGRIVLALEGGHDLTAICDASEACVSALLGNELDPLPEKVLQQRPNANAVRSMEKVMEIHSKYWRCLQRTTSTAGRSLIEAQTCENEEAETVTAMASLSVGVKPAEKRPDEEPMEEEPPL
Description: as §1, §2, §3

Row | Dmax at 10 µM [2] | Dmax at 10 µM [3] | Compound | reduction of colonies (clonogenic growth) [1]
1 | 71 to 76% | 71 to 76% | O=C(CCCCCCNC(=O)c1ccc(NC(=O)CCCCCCCCCCCN(C(=O)CCl)C(C(=O)NCc2ccccc2)c2ccc(Cl)c(Cl)c2)cc1)NO (stereo not drawn) [Compound 1j] | significant reduction of colonies
2 | 51% | 40% | O=C(CCCCCCNC(=O)c1ccc(N(C(=O)CCl)C(C(=O)NCc2ccccc2)c2ccc(Cl)c(Cl)c2)cc1)NO (stereo not drawn) [Compound 2] | significant reduction of colonies

— paper PMC12091851, “Replacing a Cereblon Ligand by a DDB1 and CUL4 Associated Factor 11 (DCAF11) Recruiter Converts a Selective Histone Deacetylase 6 PROTAC into a Pan‐Degrader” (Chemmedchem, 2025)
